The text below walks through data of patent publication US8598364B2, “Oligomer-protease inhibitor conjugates” (Nektar Therapeutics, priority 2007, dated 2013).

Broadly, the pIC50 is the IC50 on a negative log10 scale, so that one unit is a factor of ten. Usually IC90 stands for the concentration needed for an effect of 90%.

For one series, the system named is HIV-1RF. As to the kind of experiment: Anti-HIV-1 efficacy in CEM-SS cells infected with HIV-1RF (MTS staining). Format: cell-based. The conditions noted are these: for pIC50: read-out: In vitro Activity IC50. On the procedure: (§1) Compounds were tested at a 1.0 μM high-test concentration in DMSO. CEM-SS cells were passaged in T-75 flasks prior to use in the antiviral assay. On the day preceding the assay, the cells were split 1:2 in order to assure they were in exponential growth phase at the time of infection. Total cell and viability quantification was performed using a hemacytometer and trypan blue exclusion. Cell viability was greater than 95% for the cells to be utilized in the assay. The cells were resuspended at 5×10^4 cells/mL in tissue culture medium and added to the drug-containing microtiter plates in a volume of 50 μL.
The virus used was the lymphocytropic virus strain HIV-1RF. This virus was obtained from the NIH AIDS research and Reference Reagent Program and was grown in CEM-SS cells for the production of stock virus pools. For each assay, a pre-titered aliquot of virus was removed from the freezer and allowed to thaw slowly to room temperature in a biological safety cabinet. The virus was resuspended and diluted into tissue culture medium such that the amount of virus added to each well in a volume of 50 μL was the amount determined to give approximately 90% cell killing in six days post-infection.
(§2) Each plate contains cell control wells (cells only), virus control wells (cells plus virus), compound cytotoxicity wells (cells plus compound only), compound colorimetric control wells (compound only), as well as experimental wells (compound plus cells plus virus). Samples were evaluated with triplicate measurements for antiviral efficacy and duplicate measurements for cytotoxicity. Six concentrations at half-log dilutions were used in order to determine the IC50 values and to measure cellular cytotoxicity, if detectable.
(§3) At assay termination, the assay plates were stained with the soluble tetrazolium-based dye MTS (CellTiter Reagent, Promega) to determine cell viability and quantify compound cytotoxicity. […] At termination of the assay, 20 μL of MTS reagent was added per well. The wells were incubated for four to six hours at 37° C. Adhesive plate sealers were used in place of the lids, the seal plate was inverted several times to mix the soluble formazan product and the plate was read spectrophotometrically at 490/650 nm with a Molecular Devices Vmax plate reader.

Another series has as its system CEM-SS cells. The series is described as follows: in vitro. On the procedure:
as §1, §2, §3

The next series concerns the target T1, retroviral protease (Human immunodeficiency virus type 1 group M subtype B, UniProt P04585).
T1 construct: any small molecule that can reduce the activity of a retroviral protease
As to the kind of experiment: Cell-free assay of protease inhibitor conjugates. Format: biochemical. The following applies: for IC50-fold change / IC90 fold change: relative to atazanavir.

The nature of a further series: in vitro. The conditions noted are these: human. On the procedure:
as §1, §2, §3

Where [1] appears, read: Table 1, CEM-SS cells, HIV-1RF, 50% inhibition of virus replication, 1.0 μM high-test concentration.
The mark [2] stands for this setting: Table 3, cell-free assay, atazanavir conjugates, read-out: IC50.
Where [3] appears, read: Table 3, cell-free assay, atazanavir conjugates, read-out: IC90.
[4] abbreviates: Table 2, atazanavir conjugates, read-out: CEM-SS/HIV-1RF EC50.
Setting [5] is: Table 4, CEM-SS/HIV-1RF, read-out: EC50.
The mark [6] stands for this setting: IC50, Table 3, cell-free assay, atazanavir conjugates.
[7] abbreviates: Human immunodeficiency virus 1, CEM-SS, Table 2, atazanavir conjugates, read-out: CEM-SS/HIV-1RF EC50.
The mark [8] stands for this setting: Human immunodeficiency virus 1, Table 4, CEM-SS/HIV-1RF, read-out: EC50.

pEC50, pIC50: −log10 of the molar value. Where two headings read alike, the source gives them in different places.

Turning to 26-m-PEG-7-O-Saquinavir, in the series on HIV-1RF (setting [1]), the “In vitro Activity IC50” value is recorded as “no activity”. Further, the CC50 in the series on CEM-SS cells was greater than 1 µM.

As for 15-m-PEG-7-NHCO-Saquinavir, the pIC50 in the series on HIV-1RF (setting [1]) is 7.30. The CC50 with CEM-SS cells was greater than 1 µM.

As to “di-mPEG5-Atazanavir [di-mPEG-5-Atazanavir]”, the pIC50 on retroviral protease (setting [2]) is 7.76. Besides, on retroviral protease (setting [3]), the concentration for an effect of 90% (IC90) is 0.0476 µM. In addition, at retroviral protease (Table 3, cell-free assay), the IC50-fold change stood at 2.5 and the IC90 fold change is reported as 1.5. Also, the pEC50 in the series on HIV-1RF (setting [4]) was 5.96. In addition, the pEC50 with HIV-1RF (setting [5]) was 5.96. For the same molecule, in the series on CEM-SS cells, the CC50 is greater than 200 µM.

As to 26-m-PEG-3-O-Saquinavir, in the series with HIV-1RF (setting [1]), the “In vitro Activity IC50” value is listed as “no activity”. In the series on CEM-SS cells, this molecule gave a CC50 greater than 1 µM.

As for “15-di-m-PEG-7-NCO-Saquinavir [di-15-m-PEG-7-NCO-Saquinavir]”, in the series with HIV-1RF (setting [1]), the pIC50 is 6.25. In the series on CEM-SS cells, this molecule registered a CC50 greater than 1 µM.

For the molecule `Cc1cn([C@H]2C[C@H](N=[N+]=[N-])[C@@H](CO)O2)c(=O)[nH]c1=O` [AZT, reference compound], the pEC50 with HIV-1RF (setting [4]) was 9.00; in the series on HIV-1RF (setting [5]) it was 9.00; in the series on HIV-1RF (Table 5, tipranavir conjugates in cell-based assay, read-out: CEM-SS/HIV-1RF EC50), 8.70; in the series on HIV-1RF (Table 7, darunavir conjugates in cell-based assay, read-out: CEM-SS/HIV-1RF EC50), 8.30. This molecule yielded a CC50 in the series on CEM-SS cells greater than 1 µM.

As to `COCCOCCOCCOCCOCCOCCOCCOC(=O)NC(C(=O)NC(Cc1ccccc1)C(O)CN(Cc1ccc(-c2ccccn2)cc1)NC(=O)C(NC(=O)OCCOCCOCCOCCOCCOCCOCCOC)C(C)(C)C)C(C)(C)C` (stereo not shown) [di-mPEG-7-Atazanavir, di-mPEG7-Atazanavir], on retroviral protease, the IC90 amounted to 0.0399 µM. The molecule further gave a pIC50 on retroviral protease (setting [6]) of 7.96. Also, on retroviral protease (Table 3, cell-free assay), the IC50-fold change is given as 1.6. Further, at retroviral protease (Table 3, cell-free assay), the IC90 fold change was 1.3. The pEC50 in the series on HIV-1RF (setting [7]) and in the series with HIV-1RF (setting [8]) was 5.08 each time. Further, the CC50 with CEM-SS cells (human) and in the series “in vitro” was greater than 200 µM throughout.

On to `COC(=O)N[C@H](C(=O)N[C@@H](Cc1ccccc1)[C@@H](O)CN(Cc1ccc(-c2ccccn2)cc1)NC(=O)[C@@H](NC(=O)OC)C(C)(C)C)C(C)(C)C` [Atazanavir, atazanavir, reference compound], for which the IC90 against retroviral protease came out at 0.0318 µM. For the same molecule, the pIC50 against retroviral protease (setting [6]) is 8.16. On retroviral protease (Table 3, cell-free assay), this molecule had an IC50-fold change of 1.0 and an IC90 fold change of 1.0. Besides, in the series with HIV-1RF (setting [7]), the pEC50 was 7.92. Also, the pEC50 in the series on HIV-1RF (setting [8]) is 7.92. This molecule also showed a CC50 in the series “in vitro” of 54.9 µM.

On to `CCC[C@@]1(CCc2ccccc2)CC(O)=C([C@H](CC)c2cccc(NS(=O)(=O)c3ccc(C(F)(F)F)cn3)c2)C(=O)O1` [Tipranavir, tipranavir, reference compound], for which the pIC50 at retroviral protease (IC50, Table 6, tipranavir conjugates in cell-free assay) is 8.14. For the same molecule, the pEC50 in the series with HIV-1RF (Human immunodeficiency virus 1, CEM-SS, Table 5, tipranavir conjugates in cell-based assay, read-out: CEM-SS/HIV-1RF EC50) was 6.92. This molecule yielded a CC50 in the series “in vitro” of 30.6 µM.

Take “di-mPEG6-Atazanavir [di-mPEG-6-Atazanavir]”: on retroviral protease (setting [2]), the pIC50 was 7.81. In addition, the IC90 on retroviral protease (setting [3]) was 0.0678 µM. Also, on retroviral protease (Table 3, cell-free assay), the IC50-fold change turned out to be 2.3 and the IC90 fold change came out at 2.1. In addition, in the series on HIV-1RF (setting [4]), the pEC50 was 5.60. In addition, the pEC50 with HIV-1RF (setting [5]) was 5.60. In addition, the CC50 with CEM-SS cells is 159 µM.

Take `CC(C)CN(C[C@@H](O)[C@H](Cc1ccccc1)NC(=O)O[C@H]1CO[C@H]2OCC[C@H]21)S(=O)(=O)c1ccc(N)cc1` [Darunavir, darunavir, reference compound]: in the series on HIV-1RF (Human immunodeficiency virus 1, CEM-SS, read-out: CEM-SS/HIV-1RF EC50), the pEC50 is greater than 9.15.

Turning to `COCCOCCOCCOC(=O)NC(C(=O)NC(Cc1ccccc1)C(O)CN(Cc1ccc(-c2ccccn2)cc1)NC(=O)C(NC(=O)OCCOCCOCCOC)C(C)(C)C)C(C)(C)C` (stereo not shown) [di-mPEG-3-Atazanavir, di-mPEG3-Atazanavir], the IC90 on retroviral protease is 0.0537 µM. At retroviral protease (setting [6]), this molecule showed a pIC50 of 7.90. For the same molecule, the IC50-fold change against retroviral protease (Table 3, cell-free assay) stood at 1.8. This molecule also came in with an IC90 fold change against retroviral protease (Table 3, cell-free assay) of 1.7. The pEC50 in the series with HIV-1RF (setting [7]) and in the series on HIV-1RF (setting [8]) was 7.42 throughout. The CC50 in the series “in vitro” amounted to 95.7 µM.

As for `CC(C)(C)NC(=O)[C@@H]1C[C@@H]2CCCC[C@@H]2CN1C[C@@H](O)[C@H](Cc1ccccc1)NC(=O)[C@H](CC(N)=O)NC(=O)c1ccc2ccccc2n1` [Saquinavir, saquinavir, reference compound], the pIC50 in the series on HIV-1RF (Human immunodeficiency virus 1, CEM-SS) is 8.70. Further, the CC50 in the series “in vitro” is greater than 0.1 µM.
